Test results reported in paper PMC9061822, “A novel SRSF3 inhibitor, SFI003, exerts anticancer activity against colorectal cancer by modulating the SRSF3/DHCR24/ROS axis” (Cell Death Discovery, 2022).
Entries after “also recorded” stand apart in the source; their conditions may differ. Read-outs that look alike come from different tables or passages of the source. Values belong to the compound of their own block, whether it stands above or below them. Where a SMILES comes first, the peptide text is derived from it. The star is where a group is joined. Cbz = O=C(OCc1ccccc1)*

What was measured:
SRSF3 = biological target: T1, SRSF3 (Homo sapiens, UniProt P84103); assay: Western blot of SRSF3 protein in HCT-116 and SW480 cells; format: cell-based; set-up: endogenous in cells; host or cells: HCT-116 and SW480; conditions: for effect on SFI003-induced SRSF3 degradation: HCT-116 and SW480, 20 μM SFI003 plus 3 μM MLN4924, 50 μM CHQ or 10 μM MG132 for 12 h
T1 sequence (P84103 1-164): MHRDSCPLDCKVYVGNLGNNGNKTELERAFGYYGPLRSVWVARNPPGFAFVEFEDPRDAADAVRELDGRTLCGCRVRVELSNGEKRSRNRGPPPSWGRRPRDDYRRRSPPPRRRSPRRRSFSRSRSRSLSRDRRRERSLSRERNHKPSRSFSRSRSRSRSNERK
Description: (§1) After cell lysates were prepared, protein concentrations were determined by a BCA assay (TaKaRa, Kusatsu, Japan). Equal amounts of protein were separated by SDS–PAGE and transferred to polyvinylidene difluoride membranes. After normalization, the blots were probed with appropriate antibodies, as described previously.

HCT-116 and SW480 cells [1] = assay: WB of EMT and apoptosis markers with ROS scavengers; format: cell-based, Human; conditions: 20 μM SFI003 with 5 mM NAC or 100 μM Trolox, 72 h
Description: as §1

ROS = assay: Detection of ROS (DCFH-DA) in HCT-116 and SW480 cells; format: cell-based, Human; conditions: 72 h
Description: Following treatment with SFI003 or siRNA, the cells were washed with PBS and incubated with DCFH-DA for 20 min at 37 °C. After washing three times, the cells were collected and measured at 488 nm excitation and 525 nm emission by a microplate reader (Tecan, Switzerland) according to the manufacturer’s instructions (Beyotime, Shanghai, China). The protein concentrations were determined by using a BCA assay (TaKaRa, Kusatsu, Japan).

SW480 cells = assay: MTT assay in SW480 cells; format: cell-based, Human
Description: (§2) Human CRC cell lines were purchased from the American Type Culture Collection (VA, USA). HCT-116 cells were cultured in DMEM (HyClone, Utah, USA) containing 10% fetal bovine serum (FBS; Gibco, NY, USA). SW480 cells were cultured in RPMI 1640 medium (HyClone, Utah, USA) containing 10% FBS. All cells were cultured in an incubator (Thermo, CA, USA) at a constant temperature of 37 °C and 5% CO2. N-Acetylcysteine (NAC), Trolox, MLN4924, 5-Fu, and capecitabine were purchased from MedChemExpress LLC (Shanghai, China). MG132 was purchased from Santa Cruz Biotech (CA, USA). Chloroquine (CHQ) was purchased from Sigma (CA, USA). Rapamycin was purchased from Beyotime (Shanghai, China). Primary antibodies against SRSF3 and E-Cadherin were purchased from Abcam (Cambridge, UK). Primary antibodies against N-Cadherin, Caspase 3, DHCR24, CAT, Akt and phospho-Akt (Ser473) were purchased from Cell Signaling Technology (MA, USA). Primary antibodies against β-actin, mTOR, and phospho-mTOR ([…]) were purchased from Beyotime (Shanghai, China). Primary antibody against Vimentin was purchased from Proteintech (Wuhan, China). Primary antibody against Bcl-2 was purchased from Santa Cruz Biotech (CA, USA). Primary antibody against Flag was purchased from MBL Beijing Biotech (Beijing, China). CRC cells were transfected with 100 nM siRNA or treated with various doses of SFI003 for 24 h, 48 h, or 72 h before being subjected to MTT assay as described previously.

Plasma protein binding = format: in vitro ADME; conditions: read-out: plasma protein binding rate (converted)
HCT-116 and SW480 cells [2] = assay: Wound-healing and Transwell migration assays; format: cell-based, Human; conditions: HCT-116 and SW480, 10 μM, 24 h
Description: HCT-116 and SW480 cells were seeded into six-well plates in confluent monolayers. Then, the cells were transfected with 100 nM siRNA or treated with 10 μM SFI003. Scratch wounds were created using a sterilized tip in 0.5% serum medium. Images were captured at 0 h, 24 h, and 72 h after wounding. Three independent measurements of wound width were conducted.
HCT-116 and SW480 cells (1 × 10^5) were resuspended in 200 µl medium containing 0.1% serum and then added to the upper compartment of migration chambers (Costar, Corning, NY, USA). The bottom chamber was filled with 600 µl cell culture medium with 20% FBS as an attractant. After coculture for 24 h or 48 h, the cells were fixed in 4% paraformaldehyde and stained with 0.1% crystal violet. The stained cells in 8 random fields were counted at ×100 magnification. Three independent measurements were conducted.

[3] = Serum biochemical analysis / tolerability in treated mice; format: in vivo
Description: (§3) To explore the effect of SFI003 on the growth of CRC, approximately 3 × 10^6 HCT-116 cells or 8 × 10^6 SW480 cells were collected and mixed with Matrigel (Corning, NY, USA) at a 1:1 ratio by volume and then injected into the lower back region of mice. When tumors were palpable, mice were randomly divided into four groups. One group received vehicle as a control, while the other three groups were orally administered SFI003 at a dosage of 100 or 200 mg/kg or capecitabine at a dosage of 100 mg/kg for two continuous weeks. The tumor sizes and mouse body weights were monitored every other day. At the end of the experiment, tumors and blood samples were collected for further studies. The tumor size was evaluated according to Eq.: tumor size (mm^3) = (length × width^2) × 0.5.

[4] = Pharmacokinetics in ICR mice; format: in vivo; conditions: mouse, plasma
Description: 29 the blood samples by centrifuging at 5,000 rpm under 4℃ for 5 min. […]
(§4) 33 or tissue sample was added into 100 µl acetonitrile containing internal standard
(§5) 34 Tolbutamide. The mixture was vortexed for 3 min and centrifuged at 13,000 rpm for 10
(§6) 35 min. An aliquot of 10 µl resulting supernatant was injected to LC -MS/MS system
(§7) 36 (API4000 QTrap; AB Sciex) for compound analysis. The analytes were separated in a
(§8) 37 Venusil XBP-C18 column (2.1×50 mm, 5 μm; Agela, China) using the mixture of 5mM
(§9) 38 NH4OAc-0.1% formic acid (A) and methanol (B) as mobile phase. The gradient
(§10) 39 condition was: 1.3 min, 2%B; 2.0 min, 90%B; 3.5 min, 90%B; 3.8 min, 2%B. The elutes
(§11) 40 were detected by MS/MS spectrometry using ESI positive mode with m/z 271.1>172.2,
(§12) 42 SFI003. […]
52 Druggability evaluation of SFI003
53 Next, we evaluated the druggability of SFI003. We first examined the
54 pharmacokinetic properties of SFI003 in mice. We measured the plasma concentration
55 of SFI003 in mice after oral administration of 100 mg/kg SFI003.

[5] = Pharmacokinetics in ICR mice; format: in vivo; conditions: mouse, plasma, iv, 10 mg/kg
DHCR24 = assay: RT-PCR and WB of DHCR24 in HCT-116 and SW480 cells; format: cell-based, Human; conditions: HCT-116 and SW480, 20 μM, 72 h
Description: (§13) HCT-116 and SW480 cells were transfected with 100 nM siRNA for 48 h or treated with SFI003 for 72 h. Total RNA was isolated by using TRIzol (Invitrogen, CA, USA) according to the manufacturer’s instructions and then was reversely transcribed into cDNA with random primers (TaKaRa, Kusatsu, Japan) and RT-Kit (Thermo, CA, USA). The cDNA was amplified by PCR using the primers listed in Supplementary Table 1.
as §1

[6] = Metabolic stability in rat liver microsomes; format: in vitro ADME
HCT-116 xenografts = HCT-116 xenografts in SCID mice; format: in vivo; conditions: two weeks; for number of tumors that disappeared: HCT-116 xenografts
Description: as §3

[7] = test system: CCDC50S, p53α and p53β mRNA; assay: RT-PCR of SRSF3 target gene mRNA in HCT-116 and SW480 cells; format: cell-based, Human; conditions: 20 μM, 72 h
Description: as §13

SW480 xenografts = SW480 xenografts in SCID mice; format: in vivo
Description: as §3

Akt-mTOR pathway = assay: WB of p-Akt and p-mTOR in HCT-116 and SW480 cells; format: cell-based, Human; conditions: HCT-116 and SW480, 20 μM, 72 h
Description: as §1

[8] = Tissue distribution in ICR mice; format: in vivo; conditions: oral 100 mg/kg
Description: 29 the blood samples by centrifuging at 5,000 rpm under 4℃ for 5 min. For
30 determination of SFI003 concentration in mice tissues, the male ICR mice (n=3) were
31 orally administrated with 100mg/kg SFI003, and the liver and kidney of the mice were
32 collected at 0.25, 0.5, 1, 2, 4, 8, and 12 h after administration. An aliquot of 25 µl plasma
as §4, §5, §6, §7, §8, §9, §10, §11, §12

[9] = Metabolic stability in human liver microsomes; format: in vitro ADME
HCT-116 cells = assay: MTT assay in HCT-116 cells; format: cell-based, Human
Description: as §2

[10] = SFI003-treated tumor-bearing mice
[11] = read-out: intrinsic clearance (converted)

Compound: CC(C)C[C@@H](C=O)NC(=O)[C@H](CC(C)C)NC(=O)[C@H](CC(C)C)NC(=O)OCc1ccccc1 [MG132] (Cbz-Leu-Leu-Leu-aldehyde)
effect on SFI003-induced SRSF3 degradation (SRSF3): rescued

effect on SFI003-induced SRSF3 degradation (SRSF3): rescued
Compound: NS(=O)(=O)OC[C@@H]1C[C@@H](n2ccc3c(N[C@H]4CCc5ccccc54)ncnc32)C[C@@H]1O [MLN4924]

Compound: CC(=O)N[C@@H](CS)C(=O)O [NAC, N-Acetylcysteine]
effect on SFI003-induced apoptosis and migration disability (HCT-116 and SW480 cells [1]): reversed
effect on SFI003-induced ROS (ROS; 20 μM SFI003 with 5 mM NAC or 100 μM Trolox): significantly reversed

Compound: COc1ccc(-c2csc(N/N=C(\C)c3nc4ccccc4[nH]3)n2)cc1 [SFI003]
IC50 (SW480 cells; Homo sapiens, SW480 cells, 72 h): 48.7 µM
cytotoxicity after SRSF3 silencing (SW480 cells; SW480, SRSF3 siRNA 24 h, then 50 μM for 72 h): eliminated
inhibition of proliferation (SW480 cells; SW480, various doses, 24, 48 and 72 h): dose- and time-dependent
fraction unbound (Plasma protein binding): 0.586
migration of CRC cells (HCT-116 and SW480 cells [2]): repressed
serum ALP, ALT, AST, GGT [3, 10]: no alteration
serum CRE and URE [3, 10]: moderate
tolerability in vivo ([3]; mice): well tolerated
bioavailability ([4]; oral, p.o. 100 mg/kg vs i.v. 10 mg/kg, read-out: F (bioavailability)): 52.5%
AUC(0-inf) ([4]; po, 100 mg/kg): 30900 ng·h/mL
AUC(0-t) ([4]; po, 100 mg/kg): 30900 ng·h/mL
Tmax ([4]; po, 100 mg/kg): 2 h
half-life ([4]; po, 100 mg/kg): 1.86 h
MRT inf ([4]; po, 100 mg/kg, read-out: MRTINF_obs): 4.66 h
Cmax ([4]; po, 100 mg/kg): 4440 ng/mL
AUC(0-inf) [5]: 5890 ng·h/mL
AUC(0-t) [5]: 5890 ng·h/mL
half-life [5]: 0.4 h
MRT inf ([5]; read-out: MRTINF_obs): 0.44 h
Vd ([5]; read-out: Vss): 0.75 L/kg
DHCR24 mRNA and protein (DHCR24): inhibited
ROS level (ROS; HCT-116 and SW480, 10, 20 and 50 μM, dose-dependent): significantly enhanced
half time [6]: 53.31 min
CLint scaled [6, 11]: 46.7 mL/min/kg
growth of HCT-116 xenografts (HCT-116 xenografts; 100 or 200 mg/kg orally, dose-dependent): efficiently suppressed
number of tumors that disappeared (HCT-116 xenografts; 100 mg/kg orally, 100 mg/kg): two and two of six
number of tumors that disappeared (HCT-116 xenografts; 200 mg/kg orally): three
mRNA level of CCDC50S [7]: markedly reduced
mRNA level of p53α [7]: markedly reduced
mRNA level of p53β [7]: elevated
growth of SW480 xenografts (SW480 xenografts; 100 or 200 mg/kg orally, two weeks, dose-dependent): efficiently suppressed
body weight (SW480 xenografts; SW480 tumor-bearing mice, oral, two weeks): slight reduction
antitumor activity compared with capecitabine (SW480 xenografts; SW480 xenografts, oral, two weeks, capecitabine 100 mg/kg): stronger inhibitory activity than capecitabine; also recorded: more potent antitumor efficacy than capecitabine
concentration of SFI003 in tumors versus plasma (SW480 xenografts; mice grafted with SW480 cells, 100 mg/kg, 2 h): close to the plasma
level of SRSF3 protein (SRSF3; HCT-116 and SW480 cells, various doses, 72 h): apparently reduced
activities of Akt (p-Akt) and mTOR (p-mTOR) (Akt-mTOR pathway): inhibited
distribution to liver and kidney [8]: highly accumulated
half time [9]: 31.50 min
CLint scaled [9, 11]: 55.2 mL/min/kg
cytotoxicity after SRSF3 silencing (HCT-116 cells; HCT-116, SRSF3 siRNA 24 h, then 10 μM for 72 h): eliminated
inhibition of proliferation (HCT-116 cells; HCT-116, various doses, 24, 48 and 72 h): dose- and time-dependent
IC50 compared with the other synthesized compounds (HCT-116 cells; HCT-116 cells, 72 h): the most potent compound with the lowest IC50 value
IC50 (HCT-116 cells; Homo sapiens, HCT-116 cells, 72 h): 8.78 µM
